Assay results: patent US20110100079A1, “METHOD FOR IMPARTING STRESS TOLERANCE TO PLANT” (priority 2007, published 2011)

Experiments:
Type in all cases: in vivo
[1] = test system: “Momotaro” tomato; test: Example 3 drying stress tolerance imparting test (tomato); settings: 3 weeks
Description: Other cultivation conditions were as with the conditions of the drying stress test. Drying stress conditions: soil pF value: 2.3, 2.5, or 2.9, cultivation temperature: 23° C., relative humidity: 50%, illuminance: 5000 Lux (fluorescent light), light/dark cycle: 16 hours/8 hours (2) Cultivation period: 3 weeks (3) Soil: Kureha gardening soil manufactured by Kureha Corporation (fertilizer components: N:P:K=0.4:1.9:0.6 g/kg soil) (4) Plant preparation: A 50-cell tray was filled with Kureha gardening soil manufactured by Kureha Corporation (fertilizer components: N:P:K=0.4:1.9:0.6 g/kg soil), and seeds of a “Momotaro” tomato were sowed, thinly covered with Kureha gardening soil, and sufficiently watered to allow the seeds to sprout. When the leaves in the 2-leaf stage fully unfolded, the soil on the tomato roots was carefully washed away with running water, and a test was performed. (5) The chemicals used and the amount of a treatment solution applied were as in Example 1. (6) Amount of treatment solution applied: 10 ml/specimen for leaf spraying, 50 ml/specimen for fertigation Method of Drying Stress Tolerance Imparting Test Five tomato specimens as prepared above were planted in a 60-cm planter placed on a plant culture rack in an air-conditioned room. […] From immediately after planting the tomatoes, a treatment solution of Table 1 was sprayed onto the leaves or applied to the underground portions once a week. […] Five specimens (per planter) were prepared for each of the test plot and the control plots, plant bodies were collected 3 weeks after the beginning of the test such that the roots were not cut, the soil was washed away with running water, the fresh plant body-weights were measured, and a plant stress level and an extent of imparting plant stress tolerance were calculated according to Formula (ii) and (iii) above using the average of the weights.

[2] = test system: tomato; test: Example 8 temperature stress test (tomato), soil culture; settings: 100 ppm, 2 weeks; for Fresh weight, relative value (untreated plot = 100), Comparison 1: stress-free: tomato soil culture, cultivation temperature 23, EC 1, pF 1.7, two-leaf stage; for Fresh weight, relative value (untreated plot = 100), Test 1 / Fresh weight, relative value (untreated plot = 100), Test 2 / Fresh weight, relative value (untreated plot = 100), Test 3 / Fresh weight, relative value (untreated plot = 100), Test 4: tomato soil culture; for Fresh weight, relative value (untreated plot = 100), Test 1: cultivation temperature 10, EC 1, pF 1.7, two-leaf stage; for Fresh weight, relative value (untreated plot = 100), Test 2: cultivation temperature 16, EC 1, pF 1.7, two-leaf stage; for Fresh weight, relative value (untreated plot = 100), Test 3: cultivation temperature 29, EC 1, pF 1.7, two-leaf stage; for Fresh weight, relative value (untreated plot = 100), Test 4: cultivation temperature 35, EC 1, pF 1.7, two-leaf stage
Description: Other Conditions were as in Example 5. The environmental conditions in a climatic chamber were controlled so as to have an illuminance by a fluorescent light of 5000 Lux, a daily light-dark cycle of a 16-hour light period and an 8-hour dark period, and various temperatures. Tomatoes as prepared above were transplanted in size-3 (9 cm) pots. A treatment solution containing a compound of Table 1 in a specific concentration (the remainder was water) was prepared and sprayed onto the leaves or applied to the underground portions. […] A comparative example was constructed to reflect the temperature stress-free optimum cultivation conditions to investigate the plant energizing ability. […] Moreover, when the products of the present invention and the comparative products were compared, the stress tolerance imparting ability of the products of the present invention was higher in respective temperature stress conditions.

[3] = test system: potato; test: Example 9 drying stress test (potato), soil culture; settings: 23° C., 100 ppm, 2 weeks; for Fresh weight, relative value (untreated plot = 100), Test 1 / Fresh weight, relative value (untreated plot = 100), Test 4 / Fresh weight, relative value (untreated plot = 100), Test 2 / Fresh weight, relative value (untreated plot = 100), Test 3: potato soil culture; for Fresh weight, relative value (untreated plot = 100), Test 1: EC 1, pF 2.8, two-leaf stage; for Fresh weight, relative value (untreated plot = 100), Test 4: EC 1, pF 3.5, five-leaf stage; for Fresh weight, relative value (untreated plot = 100), Test 2: EC 1, pF 3.5, two-leaf stage; for Fresh weight, relative value (untreated plot = 100), Test 3: EC 1, pF 4.1, two-leaf stage; for Fresh weight, relative value (untreated plot = 100), Comparison 1: stress-free: potato soil culture, EC 1, pF 1.7, two-leaf stage
Description: The environmental conditions in a climatic chamber were controlled so as to have a temperature of 23° C., an illuminance by a fluorescent light of 5000 Lux, and a daily light-dark cycle of a 16-hour light period and an 8-hour dark period. Potatoes as prepared above were transplanted in size-5 (15 cm) pots. During the test period, the pF value was controlled by adding a suitable amount of tap water once a day so as to attain a specific drying stress value. A treatment solution containing a compound of Table 5 in a specific concentration (the remainder was water) was prepared and sprayed onto the leaves or applied to the underground portions. […] A comparative example was constructed to reflect the drying stress-free optimum cultivation conditions to investigate the plant energizing ability. […] Moreover, when the products of the present invention and the comparative products were compared, the stress tolerance imparting ability of the products of the present invention was higher in respective drying stress conditions.

[4] = test system: “Momotaro” tomato; test: Example 1 salt stress tolerance imparting test (tomato, hydroponic, Otsuka 1/2A + NaCl); settings: NaCl 3510 ppm, leaf, 2 weeks
Description: (1) Salt stress-free test conditions: NaCl concentration (water potential by Nan): 0 ppm (0 MPa). Other cultivation conditions were as the same as the conditions of the drying stress test.
When the leaves in the 2-leaf stage fully unfolded, the soil on the tomato roots was carefully washed away with running water, and a test was performed.
Method of Salt Stress Tolerance Imparting Test
The environmental conditions in a climatic chamber were controlled so as to have a temperature of 23° C., an illuminance by a fluorescent light of 5000 Lux, and a daily light-dark cycle of a 16-hour light period and an 8-hour dark period. […] A treatment solution containing a compound of Table 1 in a specific concentration (the remainder was water) was prepared and sprayed onto the leaves or applied to the underground portion. In addition, a control plot to which no NaCl was added, not imposing a salt stress (this is a control plot for plant body weight 2 for Formula (ii) and is a stress-free control plot) and a control plot to which NaCl was added in various concentrations, imposing a salt stress, and to which the treatment solution was not applied (this is a control plot for plant body weight 1 for Formula (ii) and is a control plot including a salt stress) were prepared as controls. Ten specimens were prepared for each of the test plot and the control plots, and a plant stress level and an extent of imparting plant stress tolerance were calculated according to Formulas (II) above using as a fresh plant body weight the average of the fresh plant body weights of each specimen 2 weeks after the beginning of the test.

[5] = pF 2.3, leaf, 100 ppm once a week

| Molecule | Extent of imparting plant stress tolerance [1, 5] | Fresh weight, relative value (untreated plot = 100), Test 1 ([3]; leaf) | Fresh weight, relative value (untreated plot = 100), Test 4 ([3]; leaf) | Fresh weight, relative value (untreated plot = 100), Test 2 ([3]; leaf) | Fresh weight, relative value (untreated plot = 100), Test 3 ([3]; leaf) | Fresh weight, relative value (untreated plot = 100), Comparison 1 ([3]; leaf) | Extent of imparting plant stress tolerance ([4]; 100 ppm) | also measured |
| --- | --- | --- | --- | --- | --- | --- | --- | --- |
| O=C(O)[C@@H]1CCCN1 [Comparative product 2, Proline, reference compound] | 103% | 102 | 101 | 102 | 101 | 101 |  | Extent of imparting plant stress tolerance ([1]; pF 2.5, leaf, 100 ppm once a week): 102%; Extent of imparting plant stress tolerance ([1]; pF 2.9, leaf, 100 ppm once a week): 103%; Fresh weight, relative value (untreated plot = 100), Comparison 1 ([2]; leaf): 101; Fresh weight, relative value (untreated plot = 100), Comparison 1 ([2]; underground portion): 102; Fresh weight, relative value (untreated plot = 100), Test 1 ([2]; leaf): 100; Fresh weight, relative value (untreated plot = 100), Test 1 ([2]; underground portion): 100; Fresh weight, relative value (untreated plot = 100), Test 2 ([2]; leaf): 100; Fresh weight, relative value (untreated plot = 100), Test 2 ([2]; underground portion): 100; Fresh weight, relative value (untreated plot = 100), Test 3 ([2]; leaf): 101; Fresh weight, relative value (untreated plot = 100), Test 3 ([2]; underground portion): 101; Fresh weight, relative value (untreated plot = 100), Test 4 ([2]; leaf): 101; Fresh weight, relative value (untreated plot = 100), Test 4 ([2]; underground portion): 100; Fresh weight, relative value (untreated plot = 100), Test 1 ([3]; underground portion): 102; Fresh weight, relative value (untreated plot = 100), Test 4 ([3]; underground portion): 100; Fresh weight, relative value (untreated plot = 100), Test 2 ([3]; underground portion): 102; Fresh weight, relative value (untreated plot = 100), Test 3 ([3]; underground portion): 101; Fresh weight, relative value (untreated plot = 100), Comparison 1 ([3]; underground portion): 102 |
| C[N+](C)(C)CC(=O)[O-] [Comparative product 3, Glycine betaine, reference compound] | 103% | 102 | 101 | 102 | 102 | 102 | 103% | Fresh weight, relative value (untreated plot = 100), Comparison 1 ([2]; leaf): 102; Fresh weight, relative value (untreated plot = 100), Test 1 ([2]; leaf): 100; Fresh weight, relative value (untreated plot = 100), Test 2 ([2]; leaf): 100; Fresh weight, relative value (untreated plot = 100), Test 3 ([2]; leaf): 101; Fresh weight, relative value (untreated plot = 100), Test 4 ([2]; leaf): 101 |
| OC[C@H]1O[C@H](OC[C@H]2O[C@H](O[C@]3(CO)O[C@H](CO)[C@@H](O)[C@@H]3O)[C@H](O)[C@@H](O)[C@@H]2O)[C@H](O)[C@@H](O)[C@H]1O [Comparative product 4, Raffinose, reference compound] | 102% | 103 | 101 | 103 | 103 | 102 |  | Fresh weight, relative value (untreated plot = 100), Comparison 1 ([2]; leaf): 102; Fresh weight, relative value (untreated plot = 100), Test 1 ([2]; leaf): 100; Fresh weight, relative value (untreated plot = 100), Test 2 ([2]; leaf): 100; Fresh weight, relative value (untreated plot = 100), Test 3 ([2]; leaf): 101; Fresh weight, relative value (untreated plot = 100), Test 4 ([2]; leaf): 101 |
| Alkyl (C12-14) polyglycoside [Product of present invention 16] | 118% | 120 | 132 | 140 | 120 | 101 | 115% |  |
| POE (6) sorbitan monooleic acid ester [Product of present invention 10] | 112% |  |  |  |  |  | 113% |  |
| POE (20) sorbitan monopalmitic acid ester [Product of present invention 13] | 116% |  |  |  |  |  | 117% |  |
| POE (20) sorbitan monostearic acid ester [Product of present invention 14] | 115% |  |  |  |  |  | 116% |  |
| Sorbitan monooleic acid ester [Product of present invention 11] | 112% |  |  |  |  |  | 112% |  |
| Sucrose fatty acid ester (C16, HLB = 15) [Product of present invention 21] | 117% |  |  |  |  |  | 114% |  |
| Sucrose fatty acid ester (C18, HLB = 9) [Product of present invention 18] | 113% |  |  |  |  |  | 112% |  |
| Sucrose fatty acid ester (C18, HLB = 11) [Product of present invention 19] | 115% |  |  |  |  |  | 113% |  |
| Sucrose fatty acid ester (C18:1, HLB = 15) [Product of present invention 22] | 117% |  |  |  |  |  |  | Extent of imparting plant stress tolerance ([1]; pF 2.3, leaf, 200 ppm once a week): 113%; Extent of imparting plant stress tolerance ([4]; 200 ppm): 112% |
